Consider two molecules from patent publication US9237747B2, “Herbicidal compositions comprising 4-amino-3-chloro-5-fluoro-6-(4-chloro-2-fluoro-3-methoxyphenyl) pyridine-2-carboxylic acid or a derivative thereof and insecticides” (priority 2013, dated 2016).

Each structure is given as a SMILES string. Like-named read-outs stand apart in the source and are kept apart here.

Assay [1] relates to BRAPP. Kind of assay: Postemergence foliar-applied weed control, direct-seeded rice (greenhouse). Format: in vivo, Brachiaria platyphylla. From the text: (§1) Seeds or nutlets of the desired test plant species were planted in a soil matrix prepared by mixing a loam or sandy loam soil (e.g., 28.6 percent silt, 18.8 percent clay, and 52.6 percent sand, with a pH of about 5.8 and an organic matter content of about 1.8 percent) and calcareous grit in an 80 to 20 ratio. The soil matrix was contained in plastic pots with a volume of 1 quart and a surface area of 83.6 square centimeters (cm^2). When required to ensure good germination and healthy plants, a fungicide treatment and/or other chemical or physical treatment was applied. The plants were grown for 8-22 days in a greenhouse with an approximate 14 hour (h) photoperiod which was maintained at about 29° C. during the day and 26° C. during the night. Nutrients (Peters Excel® 15-5-15 5-Ca 2-Mg and iron chelate) were applied in the irrigation solution as needed and water was added on a regular basis. Supplemental lighting was provided with overhead metal halide 1000-Watt lamps as necessary. The plants were employed for testing when they reached the first through fourth true leaf stage.
(§2) Treatments consisted of the acid or esters of 4-amino-3-chloro-6-(4-chloro-2-fluoro-3-methoxyphenyl)-5-fluoropyridine-2-carboxylic acid (Compound A), each formulated as an SC (suspension concentrate), and various insecticidal components alone and in combination. Forms of compound A were applied on an acid equivalent basis.
(§3) Treatment requirements were calculated based upon the rates being tested, the concentration of active ingredient or acid equivalent in the formulation, and a 12 milliliter (mL) application volume at a rate of 187 liters per hectare (L/ha).
(§4) For treatments comprised of formulated compounds, measured amounts of compounds were placed individually in 25 mL glass vials and diluted in a volume of 1.25% volume per volume (v/v) Agri-Dex® crop oil concentrate to obtain 12× stock solutions. […] Application solutions were prepared by adding an appropriate amount of each stock solution (e.g., 1 mL) and diluted to the appropriate final concentrations with the addition of […] of an aqueous mixture of 1.25% (v/v) crop oil concentrate so that the final spray solutions contained 1.25+/−0.05% (v/v) crop oil concentrate.
(§5) As required, additional water and/or 97:3 v/v acetone/DMSO was added to individual application solutions so that the final acetone and DMSO concentrations of the application solutions being compared were 8.1% and 0.25%, respectively.
(§6) All stock solutions and applications solutions were visually inspected for compound compatibility prior to application. Spray solutions were applied to the plant material with an overhead Mandel track sprayer equipped with 8002E nozzles calibrated to deliver 187 L/ha over an application area of 0.503 square meters (m^2) at a spray height of 18 to 20 inches (46 to 50 cm) above average plant canopy height. Control plants were sprayed in the same manner with the solvent blank.
(§7) The treated plants and control plants were placed in a greenhouse as described above and watered by sub-irrigation to prevent wash-off of the test compounds. After approximately 3 weeks, the condition of the test plants as compared to that of the untreated plants was determined visually and scored on a scale of 0 to 100 percent where 0 corresponds to no injury or growth inhibition and 100 corresponds to complete kill.
(§8) Colby's equation was used to determine the herbicidal effects expected from the mixtures (Colby, S. R. Calculation of the synergistic and antagonistic response of herbicide combinations. Weeds 1967, 15, 20-22.).
(§9) The following equation was used to calculate the expected activity of mixtures containing two active ingredients, A and B: Expected=A+B−(A×B/100)

Assay [2] has as its system CYPES. Format: in vivo, Cyperus esculentus. The procedure:
as §1, with “When required to ensure good germination and healthy plants, a fungicide treatment and/or other chemical or physical treatment was applied.” left out
as §2, §4, §5, §6, §7, §8, §9

Assay [3] has as its system ECHCG. The assay is classed as in vivo, Echinochloa crus-galli. As for the experimental part:
as §1, with “When required to ensure good germination and healthy plants, a fungicide treatment and/or other chemical or physical treatment was applied.” left out
as §2, §4, §5, §6, §7, §8, §9

Assay [4] has as its system IPOHE. The assay is classed as in vivo, Ipomoea hederacea. As for the experimental part:
as §1, with “When required to ensure good germination and healthy plants, a fungicide treatment and/or other chemical or physical treatment was applied.” left out
as §2, §4, §5, §6, §7, §8, §9

The test system of assay [5] is DIGSA. Format: in vivo, Digitaria sanguinalis. As for the experimental part: as §1, with “When required to ensure good germination and healthy plants, a fungicide treatment and/or other chemical or physical treatment was applied.” left out
as §2, §4, §5, §6, §7, §8, §9

Assay [6] deals with CYPIR. The assay is classed as in vivo, Cyperus iria.
Text: as §1, §2, §3, §4, §5, §6, §7, §8, §9

For assay [7], the system named is LEFCH. The assay can be described thus: whole plant or invertebrate. Format: in vivo, Leptochloa chinensis. As for the experimental part:
as §1, with “When required to ensure good germination and healthy plants, a fungicide treatment and/or other chemical or physical treatment was applied.” left out
as §2, §4, §5, §6, §7, §8, §9

Assay [8] deals with LEFPA. The assay can be described thus: Postemergence foliar-applied weed control, direct-seeded rice (greenhouse). The assay is classed as in vivo, Leptochloa panicoides.
Text: as §1, §2, §3, §4, §5, §6, §7, §8, §9

The subject of assay [9] is LEFFA. The description is as above. The assay is classed as in vivo, Leptochloa fascicularis. Conditions: 22 DAA.
Text: as §1, §2, §3, §4, §5, §6, §7, §8, §9

The mark [10] stands for this setting: Dinebra chinensis, post-emergence, 528 h, read-out: Visual Weed Control (%) - 22 DAA LEFCH Obs.

Regarding `CNC(=O)Oc1cccc2ccccc12` [Carbaryl, 1-naphthalenyl N-methylcarbamate], the “Visual Weed Control (%) - 20 DAA BRAPP Obs” value in [1] (3 g ai/ha alone), in assay [1] (6 g ai/ha alone) and in assay [1] (12 g ai/ha alone) was 0% in each case. Further, the “Visual Weed Control (%) - 20 DAA CYPES Obs” value in [2] (24 g ai/ha alone), in assay [2] (48 g ai/ha alone) and in [2] (96 g ai/ha alone) was 0% each time. For the same molecule, the “Visual Weed Control (%) - 20 DAA ECHCG Obs” value in assay [3] (3 g ai/ha alone), in [3] (6 g ai/ha alone) and in assay [3] (12 g ai/ha alone) was 0% in each case. In addition, the “Visual Weed Control (%) - 20 DAA IPOHE Obs” value is reported as 0% in assay [4] (6 g ai/ha alone) and 10% in assay [4] (12 g ai/ha alone). In addition, the “Visual Weed Control (%) - 20 DAA DIGSA Obs” value in [5] (3 g ai/ha alone), in assay [5] (6 g ai/ha alone), in assay [5] (12 g ai/ha alone), in [5] (24 g ai/ha alone), in [5] (48 g ai/ha alone) and in assay [5] (96 g ai/ha alone) was 0% throughout. Besides, the “Visual Weed Control (%) - 20 DAA CYPIR Obs” value in assay [6] (3 g ai/ha alone), in assay [6] (6 g ai/ha alone) and in assay [6] (12 g ai/ha alone) was 0% each time. In addition, the “Visual Weed Control (%) - 20 DAA LEFCH Obs” value in assay [7] (3 g ai/ha alone), in assay [7] (6 g ai/ha alone) and in [7] (12 g ai/ha alone) was 0% throughout.

With `CCCCOCCOCCOCc1cc2c(cc1CCC)OCO2` [Piperonyl Butoxide, 5-[[2-(2-butoxyethoxy)ethoxy]methyl]-6-propyl-1,3-benzodioxole], the results for the “Visual Weed Control (%) - 22 DAA LEFPA Obs” value in assay [8] (140 g ai/ha alone), in [8] (280 g ai/ha alone) and in assay [8] (560 g ai/ha alone) were 0%, 5% and 0%, respectively. Besides, the “Visual Weed Control (%) - 22 DAA DIGSA Obs” value in assay [5] (in vivo) turned out to be 0%. Moreover, in assay [7] (setting [10]), the pest or weed control at 140 g/ha turned out to be 0%. The pest or weed control at 280 g/ha in [7] (setting [10]) came out at 0%. For the same molecule, in assay [7] (setting [10]), the pest or weed control at 560 g/ha is 0%. The “Visual Weed Control (%) - 22 DAA LEFFA Obs” value turned out to be 0% in [9] (140 g ai/ha alone), 5% in [9] (280 g ai/ha alone) and 0% in assay [9] (560 g ai/ha alone).
